Measurements as given in patent publication US10377717B2, “Farnesoid X receptor agonists and uses thereof” (Metacrine, Inc., priority 2015, dated 2019).

biological target: hFXR (Homo sapiens (Human), UniProt Q96RI1); assay: In Vitro FXR Assay (TK), luciferase reporter in transfected CV-1 cells; assay type: cell-based; settings: TK-ECRE-luc reporter, hFXR/hRXR, 18 hrs, maximum efficacy <25% of Fexaramine control classified as '+'
Protocol: CV-1 cells were seeded at a density of 2,000,000 cells in a T175 flask with DMEM+10% charcoal double-stripped FBS and incubated at 37° C. in 5% CO2 for 18 h (O/N).
After 18 h of incubation, the medium in the T175 flask was changed with fresh DMEM+10% charcoal super-stripped serum. In a polypropylene tube, 2500 μL OptiMEM (Life Technologies, Cat #31985-062) was combined with expression plasmids for hFXR, hRXR, TK-ECRE-luc and pCMX-YFP. The tube was then briefly vortexed and incubated at room temperature for 5 minutes. Transfection reagent (X-tremeGENE HP from Roche, Cat #06 366 236 001) was added to the OptiMEM/plasmid mixture vortexed and incubated at room temperature for 20 minutes. Following incubation, the transfection reagent/DNA mixture complex was added to cells in the T175 flask and the cells were incubated at 37° C. in 5% CO2 for 18 h (O/N).
Compounds were serially diluted in DMSO and added to transfected CV-1 cells. The cells were then incubated for 18 hrs. The next day cells were lysed and examined for luminescence.

hFXR, sequence (Q96RI1 whole entry): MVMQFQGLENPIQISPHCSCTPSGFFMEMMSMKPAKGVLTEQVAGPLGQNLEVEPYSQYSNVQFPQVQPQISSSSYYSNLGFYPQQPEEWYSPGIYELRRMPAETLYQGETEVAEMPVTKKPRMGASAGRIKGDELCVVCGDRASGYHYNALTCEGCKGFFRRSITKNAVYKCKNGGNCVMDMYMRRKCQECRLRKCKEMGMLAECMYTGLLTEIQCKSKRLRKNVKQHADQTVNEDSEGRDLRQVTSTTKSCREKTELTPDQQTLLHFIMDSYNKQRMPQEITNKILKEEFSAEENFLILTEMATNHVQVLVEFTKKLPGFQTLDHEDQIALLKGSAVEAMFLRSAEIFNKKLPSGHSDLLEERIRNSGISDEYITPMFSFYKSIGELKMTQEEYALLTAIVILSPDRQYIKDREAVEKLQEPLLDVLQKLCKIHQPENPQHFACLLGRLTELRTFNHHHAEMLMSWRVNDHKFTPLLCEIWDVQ
hFXR, sequence (P19793 whole entry partner): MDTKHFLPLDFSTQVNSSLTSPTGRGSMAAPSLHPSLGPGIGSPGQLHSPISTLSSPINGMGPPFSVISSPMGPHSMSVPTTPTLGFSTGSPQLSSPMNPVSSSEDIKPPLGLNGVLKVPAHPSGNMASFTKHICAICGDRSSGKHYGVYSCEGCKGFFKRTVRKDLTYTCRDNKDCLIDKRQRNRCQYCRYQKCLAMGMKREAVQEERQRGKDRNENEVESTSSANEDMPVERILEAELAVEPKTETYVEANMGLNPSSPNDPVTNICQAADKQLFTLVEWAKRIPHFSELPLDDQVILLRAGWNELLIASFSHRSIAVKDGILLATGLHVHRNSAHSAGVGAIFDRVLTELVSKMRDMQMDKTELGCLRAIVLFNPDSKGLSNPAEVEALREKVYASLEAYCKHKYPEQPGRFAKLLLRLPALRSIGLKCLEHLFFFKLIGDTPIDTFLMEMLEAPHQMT

| Structure (SMILES) | EC50 [nM] |
| --- | --- |
| COC(=O)c1ccc2c(N(Cc3ccc(-c4ccc(C)c(C#N)c4)cc3)C(=O)CC(C)(C)C)nccc2c1 [Compound 30, Methyl 1-(N-((3′-cyano-4′-methyl-[1,1′-biphenyl]-4-yl)methyl)-3,3-dimethylbutanamido)isoquinoline-6-carboxylate] | ≤ 1000 |
| COC(=O)c1ccc2c(N(Cc3ccc(-c4ccc(C5CC5)cc4)cc3)C(=O)CC(C)(C)C)nccc2c1 [Compound 40, Methyl 1-(N-((4′-cyclopropyl-[1,1′-biphenyl]-4-yl)methyl)-3,3-dimethylbutanamido)isoquinoline-6-carboxylate] | ≤ 1000 |
| COCc1ccc(-c2ccc(CN(C(=O)CC(C)(C)C)c3nccc4cc(C(=O)OC)ccc34)cc2)cc1 [Compound 58, Methyl 1-(N-((4′-(methoxymethyl)-[1,1′-biphenyl]-4-yl)methyl)-3,3-dimethylbutanamido)isoquinoline-6-carboxylate] | ≤ 1000 |
| COC(=O)c1ccc2c(N(Cc3ccc(-c4cnc(OC)c(Cl)c4)cc3)C(=O)CC(C)(C)C)nccc2c1 [Compound 36, Methyl 1-(N-(4-(5-chloro-6-methoxypyridin-3-yl)benzyl)-3,3-dimethylbutanamido)isoquinoline-6-carboxylate] | ≤ 1000 |
| COC(=O)c1ccc2c(N(Cc3ccc(-c4ccc5c(c4)CCN5C)cc3)C(=O)CC(C)(C)C)nccc2c1 [Compound 64, Methyl 1-(3,3-dimethyl-N-(4-(1-methylindolin-5-yl)benzyl)butanamido)isoquinoline-6-carboxylate] | ≤ 1000 |
| COC(=O)c1ccc2c(N(CC3CCN(c4ccc(OC)c(C)c4)CC3)C(=O)CC(C)(C)C)nccc2c1 [Compound 98, Methyl 1-(N-((1-(4-methoxy-3-methylphenyl)piperidin-4-yl)methyl)-3,3-dimethylbutanamido)isoquinoline-6-carboxylate] | 1000 to 10000 |
| CCOC(=O)c1ccc2c(N(Cc3ccc(-c4ccc(OC)c(C)c4)cc3)C(=O)C3CCCCC3)cccc2n1 [Compound 23, Ethyl 5-(N-((4′-methoxy-3′-methyl-[1,1′-biphenyl]-4-yl)methyl)cyclohexanecarboxamido) quinoline-2-carboxylate] | 1000 to 10000 |
| COC(=O)c1ccc2c(N(Cc3ccc(-c4ccc(OC)c(C)c4)cc3)C(=O)CCO)nccc2c1 [Compound 84, Methyl 1-(3-hydroxy-N-((4′-methoxy-3′-methyl-[1,1′-biphenyl]-4-yl)methyl)propanamido) isoquinoline-6-carboxylate] | ≥ 10000 |
| COC(=O)/C=C/c1ccnc(N(C[C@H]2CC[C@H](c3ccc(OC)c(C)c3)CC2)C(=O)C2CCCCC2)c1 [Compound 18, (E)-Methyl 3-(2-(N-((trans-4-(4-methoxy-3-methylphenyl)cyclohexyl)methyl)cyclohexanecarboxamido)pyridin-4-yl)acrylate] | ≤ 1000 |
| COC(=O)c1ccc2c(N(Cc3ccc(-c4ccc(OC)c(C)c4)cc3)C(=O)CCCOCc3ccccc3)nccc2c1 [Compound 78, Methyl 1-(4-(benzyloxy)-N-((4′-methoxy-3′-methyl-[1,1′-biphenyl]-4-yl)methyl)butanamido)isoquinoline-6-carboxylate] | ≥ 10000 |
| COC(=O)c1ccc2c(N(Cc3ccc(-c4ccc(C(F)F)cc4)cc3)C(=O)CC(C)(C)C)nccc2c1 [Compound 56, Methyl 1-(N-((4′-(difluoromethyl)-[1,1′-biphenyl]-4-yl)methyl)-3,3-dimethylbutanamido)isoquinoline-6-carboxylate] | ≤ 1000 |
| COC(=O)c1ccc2c(N(Cc3ccc(-c4ccc5c(ccn5C)c4)cc3)C(=O)CC(C)(C)C)nccc2c1 [Compound 44, Methyl 1-(3,3-dimethyl-N-(4-(1-methyl-1H-indol-5-yl)benzyl)butanamido)isoquinoline-6-carboxylate] | ≤ 1000 |
| COC(=O)c1ccc2c(N(Cc3ccc(-c4ccc(OC)c(C)c4)c(C#N)c3)C(=O)CC(C)(C)C)nccc2c1 [Compound 26, Methyl 1-(N-((2-cyano-4′-methoxy-3′-methyl-[1,1′-biphenyl]-4-yl)methyl)-3,3-dimethylbutanamido)isoquinoline-6-carboxylate] | ≤ 1000 |
| COC(=O)c1ccc2c(N(Cc3ccc(-c4ccc(C#N)c(Cl)c4)cc3)C(=O)CC(C)(C)C)nccc2c1 [Compound 31, Methyl 1-(N-((3′-chloro-4′-cyano-[1,1′-biphenyl]-4-yl)methyl)-3,3-dimethylbutanamido)isoquinoline-6-carboxylate] | ≤ 1000 |
| COC(=O)c1ccc2c(N(Cc3ccc(-c4cnc(OC)c(C)c4)cc3)C(=O)CC(C)(C)C)nccc2c1 [Compound 37, Methyl 1-(N-(4-(6-methoxy-5-methylpyridin-3-yl)benzyl)-3,3-dimethylbutanamido)isoquinoline-6-carboxylate] | ≤ 1000 |
| COC(=O)/C=C/c1ccc2c(N(Cc3ccc(-c4ccc(OC)c(C)c4)cc3)C(=O)CC(C)(C)C)nccc2c1 [Compound 102, (E)-Methyl 3-(1-(N-((4′-methoxy-3′-methyl-[1,1′-biphenyl]-4-yl)methyl)-3,3-dimethylbutanamido)isoquinolin-6-yl)acrylate] | 1000 to 10000 |
| COC(=O)c1ccc2c(N(Cc3ccc(-c4ccc(OC)c(C)c4)cc3)C(=O)CC(C)C)nccc2c1 [Compound 70, Methyl 1-(N-((4′-methoxy-3′-methyl-[1,1′-biphenyl]-4-yl)methyl)-3-methylbutanamido)isoquinoline-6-carboxylate] | ≤ 1000 |
| COc1ccc([C@H]2CC[C@H](CN(C(=O)CC(C)(C)C)c3nccc4cc(C(=O)OC(C)C)ccc34)CC2)cc1C [Compound 87, Isopropyl 1-(N-((trans-4-(4-methoxy-3-methylphenyl)cyclohexyl)methyl)-3,3-dimethylbutanamido)isoquinoline-6-carboxylate] | ≤ 1000 |
| COC(=O)c1ccc2c(N(Cc3ccc(-c4ccc(OC)c(C)c4)cc3)C(=O)C(C)C)nccc2c1 [Compound 28, Methyl 1-(N-((4′-methoxy-3′-methyl-[1,1′-biphenyl]-4-yl)methyl)isobutyramido) isoquinoline-6-carboxylate] | ≤ 1000 |
| COC(=O)c1ccc2c(N(Cc3ccc(-c4ccc(OC(F)F)cc4)cc3)C(=O)CC(C)(C)C)nccc2c1 [Compound 57, Methyl 1-(N-((4′-(difluoromethoxy)-[1,1′-biphenyl]-4-yl)methyl)-3,3-dirnethylbutanamido)isoquinoline-6-carboxylate] | 1000 to 10000 |
| COC(=O)c1ccc2c(N(Cc3ccc(-c4ccc(OC)c(C)c4)cc3)C(=O)CC3CCC3)nccc2c1 [Compound 79, Methyl 1-(2-cyclobutyl-N-((4′-methoxy-3′-methyl-[1,1′-biphenyl]-4-yl)methyl)acetamido)isoquinoline-6-carboxylate] | ≤ 1000 |
| CCOc1ccc(-c2ccc(CN(C(=O)CC(C)(C)C)c3nccc4cc(C(=O)OC)ccc34)cc2)cc1 [Compound 52, Methyl 1-(N-((4′-ethoxy-[1,1′-biphenyl]-4-yl)methyl)-3,3-dimethylbutanamido)isoquinoline-6-carboxylate] | 1000 to 10000 |
| COC(=O)c1ccc2c(N(Cc3ccc(-c4ccc(OC)c(C)c4)cc3)C(=O)CCCCO)nccc2c1 [Compound 86, Methyl 1-(5-hydroxy-N-((4′-methoxy-3′-methyl-[1,1-biphenyl]-4-yl)methyl)pentanamido) isoquinoline-6-carboxylate] | ≥ 10000 |
| COC(=O)c1ccc2c(N(C[C@H]3CC[C@H](c4ccc(OC)c(C)c4)CC3)C(=O)[C@H]3CC[C@H](O)CC3)nccc2c1 [Compound 99, Methyl 1-(trans-4-hydroxy-N-((trans-4-(4-methoxy-3-methylphenyl)cyclohexyl)methyl)cyclohexanecarboxamido) isoquinoline-6-carboxylate] | ≤ 1000 |
| COC(=O)c1ccc2c(N(Cc3ccc(-c4ccc(N(C)C)cc4)cc3)C(=O)C3CCCCC3)nccc2c1 [Compound 13, Methyl 1-(N-((4′-(dimethylamino)-[1,1′-biphenyl]-4-yl)methyl)cyclohexanecarboxamido) isoquinoline-6-carboxylate] | ≤ 1000 |
| COC(=O)c1ccc2c(N(C[C@H]3CC[C@H](c4ccccc4OC)CC3)C(=O)CC(C)(C)C)nccc2c1 [Compound 92, Methyl 1-(N-((trans-4-(2-methoxyphenyl)cyclohexyl)methyl)-3,3-dimethylbutanamido)isoquinoline-6-carboxylate] | ≥ 10000 |
| COc1ccc(-c2ccc(CN(C(=O)CC(C)(C)C)c3nccc4cc(C(=O)OC(C)C)ccc34)cc2)cc1C [Compound 69, Isopropyl 1-(N-((4′-methoxy-3′-methyl-[1,1′-biphenyl]-4-yl)methyl)-3,3-dimethylbutanamido)isoquinoline-6-carboxylate] | ≤ 1000 |
| COc1ccc(-c2ccc(CN(C(=O)CC(C)(C)C)c3nccc4cc(CCC(=O)O)ccc34)cc2)cc1C [Compound 104, 3-(1-(N-((4′-Methoxy-3′-methyl-[1,1′-biphenyl]-4-yl)methyl)-3,3-dimethylbutanamido)isoquinolin-6-yl)propanoic Acid] | 1000 to 10000 |
| COC(=O)c1ccc2c(N(Cc3ccc(-c4ccc(OC)c(C)c4)cc3)C(=O)CCC(C)(C)C)nccc2c1 [Compound 76, Methyl 1-(N-((4′-methoxy-3′-methyl-[1,1′-biphenyl]-4-yl)methyl)-4,4-dimethylpentanamido)isoquinoline-6-carboxylate] | ≤ 1000 |
